Source: ChEMBL document CHEMBL3885861, “Open TG-GATES”

Species: Rattus norvegicus
Experiment: Open TG-GATES - Regimen: Daily Repeat
Assay type: toxicity, organism-based, Sprague-Dawley
Design: regimen Daily Repeat, gender Male, age 6 weeks
Settings: in vivo, po, route gavage; for APTT / Bas / Eos / Fbg / Hb / Ht / Lym / MCH / MCHC / MCV / Mono / Neu / PT / Plat / RBC / Ret / WBC: tissue Blood; for KIDNEY_L / KIDNEY_R / KIDNEY_TOTAL: tissue Kidney; for LIVER: tissue Liver; for A/G / ALP / ALT / AST / BUN / CRE / Ca / Cl / DBIL / GLC / IP / K / LDH / Na / PL / RALB / TBIL / TC / TG / TP / gamma-GTP: tissue Plasma
[1] = 0 mg/kg, 72 h, dose level Control, time 3 day
[2] = 0 mg/kg, […], dose level Control, time 7 day
[3] = 0 mg/kg, […], dose level Control, time 14 day
[4] = 0 mg/kg, […], dose level Control, time 28 day
[5] = 1 mg/kg, 72 h, dose level Low, time 3 day
[6] = 1 mg/kg, […], dose level Low, time 7 day
[7] = 1 mg/kg, […], dose level Low, time 14 day
[8] = 1 mg/kg, […], dose level Low, time 28 day

## O=NN(CCCl)C(=O)NC1CCCCC1 [LOMUSTINE]
[1]
  TERMINAL_BW: 220.6 g
  APTT: 17.7 s
  Bas: 0%
  Eos: 0.6%
  Fbg: 234 mg/dL
  Hb: 13.5 g/dL
  Ht: 40.6%
  Lym: 76.8%
  MCH: 21.8 pg
  MCHC: 33.3%
  MCV: 65.5 fL
  Mono: 6.4%
  Neu: 16.2%
  PT: 11.8 s
  Plat: 108.6 x10_4/uL
  RBC: 619.4 x10_4/ul
  Ret: 7.2%
  WBC: 131.9 x10_2/uL
  KIDNEY_L: 1 g
  KIDNEY_R: 1 g
  KIDNEY_TOTAL: 2 g
  LIVER: 10.5 g
  A/G: 2
  ALP: 1042.6 IU/L
  ALT: 33.6 IU/L
  AST: 69.4 IU/L
  BUN: 18 mg/dL
  CRE: 0.5 mg/dL
  Ca: 11 mg/dL
  Cl: 104.4 meq/L
  DBIL: 0.006 mg/dL
  GLC: 186.2 mg/dL
  IP: 8.5 mg/dL
  K: 5.1 meq/L
  LDH: 99.8 IU/L
  Na: 140 meq/L
  PL: 147.6 mg/dL
  RALB: 3.9 g/dL
  TBIL: 0.4 mg/dL
  TC: 74.8 mg/dL
  TG: 114.6 mg/dL
  TP: 5.9 g/dL
  gamma-GTP: 2 IU/L
[2]
  TERMINAL_BW: 258.9 g
  APTT: 17.7 s
  Bas: 0%
  Eos: 1%
  Fbg: 241.8 mg/dL
  Hb: 13.4 g/dL
  Ht: 40.2%
  Lym: 79.6%
  MCH: 21.8 pg
  MCHC: 33.4%
  MCV: 65.2 fL
  Mono: 6%
  Neu: 14.2%
  PT: 11.4 s
  Plat: 107.5 x10_4/uL
  RBC: 617.4 x10_4/ul
  Ret: 7.2%
  WBC: 161 x10_2/uL
  KIDNEY_L: 1.2 g
  KIDNEY_R: 1.1 g
  KIDNEY_TOTAL: 2.3 g
  LIVER: 12.8 g
  A/G: 1.8
  ALP: 746 IU/L
  ALT: 36.6 IU/L
  AST: 59 IU/L
  BUN: 19.2 mg/dL
  CRE: 0.5 mg/dL
  Ca: 10.9 mg/dL
  Cl: 105.2 meq/L
  DBIL: 0.012 mg/dL
  GLC: 186 mg/dL
  IP: 7.5 mg/dL
  K: 4.9 meq/L
  LDH: 85 IU/L
  Na: 140.4 meq/L
  PL: 168.2 mg/dL
  RALB: 3.9 g/dL
  TBIL: 0.3 mg/dL
  TC: 90 mg/dL
  TG: 113.2 mg/dL
  TP: 6.1 g/dL
  gamma-GTP: 1 IU/L
[3]
  TERMINAL_BW: 305.2 g
  APTT: 16.7 s
  Bas: 0%
  Eos: 0.4%
  Fbg: 224.4 mg/dL
  Hb: 14.1 g/dL
  Ht: 42%
  Lym: 80.8%
  MCH: 20.3 pg
  MCHC: 33.5%
  MCV: 60.7 fL
  Mono: 6.8%
  Neu: 11.8%
  PT: 11.4 s
  Plat: 119.2 x10_4/uL
  RBC: 693.2 x10_4/ul
  Ret: 4.9%
  WBC: 145.5 x10_2/uL
  KIDNEY_L: 1.1 g
  KIDNEY_R: 1.2 g
  KIDNEY_TOTAL: 2.3 g
  LIVER: 14.1 g
  A/G: 2
  ALP: 859 IU/L
  ALT: 34 IU/L
  AST: 63.4 IU/L
  BUN: 20.2 mg/dL
  CRE: 0.5 mg/dL
  Ca: 11.3 mg/dL
  Cl: 106.8 meq/L
  DBIL: 0.014 mg/dL
  GLC: 183 mg/dL
  IP: 7.4 mg/dL
  K: 4.7 meq/L
  LDH: 85.6 IU/L
  Na: 140.2 meq/L
  PL: 167.6 mg/dL
  RALB: 4 g/dL
  TBIL: 0.3 mg/dL
  TC: 81 mg/dL
  TG: 118.6 mg/dL
  TP: 6.2 g/dL
  gamma-GTP: 2 IU/L
[4]
  TERMINAL_BW: 379.6 g
  APTT: 17.5 s
  Bas: 0%
  Eos: 1%
  Fbg: 250.6 mg/dL
  Hb: 15 g/dL
  Ht: 44.9%
  Lym: 82.8%
  MCH: 19.2 pg
  MCHC: 33.5%
  MCV: 57.3 fL
  Mono: 5.4%
  Neu: 10.8%
  PT: 11.9 s
  Plat: 107.1 x10_4/uL
  RBC: 783 x10_4/ul
  Ret: 2.5%
  WBC: 166.4 x10_2/uL
  KIDNEY_L: 1.4 g
  KIDNEY_R: 1.4 g
  KIDNEY_TOTAL: 2.7 g
  LIVER: 15.1 g
  A/G: 1.6
  ALP: 681.8 IU/L
  ALT: 32.2 IU/L
  AST: 63.4 IU/L
  BUN: 19 mg/dL
  CRE: 0.4 mg/dL
  Ca: 10.8 mg/dL
  Cl: 106 meq/L
  DBIL: 0.012 mg/dL
  GLC: 189.8 mg/dL
  IP: 6.3 mg/dL
  K: 4.6 meq/L
  LDH: 86.4 IU/L
  Na: 140 meq/L
  PL: 148.4 mg/dL
  RALB: 4 g/dL
  TBIL: 0.3 mg/dL
  TC: 71 mg/dL
  TG: 122.2 mg/dL
  TP: 6.4 g/dL
  gamma-GTP: 1.8 IU/L
[5]
  TERMINAL_BW: 228.6 g
  APTT: 15.3 s
  Bas: 0%
  Eos: 0.8%
  Fbg: 224.2 mg/dL
  Hb: 12.9 g/dL
  Ht: 38.5%
  Lym: 81.2%
  MCH: 21.6 pg
  MCHC: 33.4%
  MCV: 64.8 fL
  Mono: 7.6%
  Neu: 10.2%
  PT: 11.8 s
  Plat: 108.2 x10_4/uL
  RBC: 594.4 x10_4/ul
  Ret: 8.5%
  WBC: 121.5 x10_2/uL
  KIDNEY_L: 1.1 g
  KIDNEY_R: 1.1 g
  KIDNEY_TOTAL: 2.2 g
  LIVER: 11.3 g
  A/G: 2.2
  ALP: 863 IU/L
  ALT: 30 IU/L
  AST: 62 IU/L
  BUN: 16 mg/dL
  CRE: 0.5 mg/dL
  Ca: 11.1 mg/dL
  Cl: 105 meq/L
  DBIL: 0.022 mg/dL
  GLC: 188 mg/dL
  IP: 8.1 mg/dL
  K: 4.9 meq/L
  LDH: 78 IU/L
  Na: 138.6 meq/L
  PL: 144 mg/dL
  RALB: 3.9 g/dL
  TBIL: 0.3 mg/dL
  TC: 79.2 mg/dL
  TG: 85.8 mg/dL
  TP: 5.7 g/dL
  gamma-GTP: 1 IU/L
[6]
  TERMINAL_BW: 255.7 g
  APTT: 16.6 s
  Bas: 0%
  Eos: 0.6%
  Fbg: 235.2 mg/dL
  Hb: 13.3 g/dL
  Ht: 39.5%
  Lym: 80%
  MCH: 21.3 pg
  MCHC: 33.6%
  MCV: 63.6 fL
  Mono: 7.4%
  Neu: 12.4%
  PT: 11.7 s
  Plat: 109.6 x10_4/uL
  RBC: 621.2 x10_4/ul
  Ret: 6.3%
  WBC: 117.4 x10_2/uL
  KIDNEY_L: 1.2 g
  KIDNEY_R: 1.2 g
  KIDNEY_TOTAL: 2.3 g
  LIVER: 12.4 g
  A/G: 2
  ALP: 865.2 IU/L
  ALT: 35.2 IU/L
  AST: 61.6 IU/L
  BUN: 17.6 mg/dL
  CRE: 0.5 mg/dL
  Ca: 10.9 mg/dL
  Cl: 106 meq/L
  DBIL: 0.018 mg/dL
  GLC: 195.2 mg/dL
  IP: 7.5 mg/dL
  K: 4.8 meq/L
  LDH: 87.8 IU/L
  Na: 139.6 meq/L
  PL: 148.2 mg/dL
  RALB: 3.9 g/dL
  TBIL: 0.3 mg/dL
  TC: 79.2 mg/dL
  TG: 71.4 mg/dL
  TP: 5.9 g/dL
  gamma-GTP: 1.2 IU/L
[7]
  TERMINAL_BW: 313 g
  APTT: 16.9 s
  Bas: 0%
  Eos: 0.6%
  Fbg: 235 mg/dL
  Hb: 13.9 g/dL
  Ht: 41.4%
  Lym: 83.4%
  MCH: 20.8 pg
  MCHC: 33.6%
  MCV: 61.9 fL
  Mono: 4.8%
  Neu: 11.4%
  PT: 11.5 s
  Plat: 119.3 x10_4/uL
  RBC: 669.6 x10_4/ul
  Ret: 5.5%
  WBC: 116.8 x10_2/uL
  KIDNEY_L: 1.3 g
  KIDNEY_R: 1.2 g
  KIDNEY_TOTAL: 2.5 g
  LIVER: 14.7 g
  A/G: 2
  ALP: 821 IU/L
  ALT: 26.2 IU/L
  AST: 56.8 IU/L
  BUN: 19.2 mg/dL
  CRE: 0.5 mg/dL
  Ca: 11.3 mg/dL
  Cl: 106.6 meq/L
  DBIL: 0.01 mg/dL
  GLC: 184.4 mg/dL
  IP: 7.4 mg/dL
  K: 4.8 meq/L
  LDH: 84.6 IU/L
  Na: 139.8 meq/L
  PL: 175.2 mg/dL
  RALB: 4 g/dL
  TBIL: 0.3 mg/dL
  TC: 83.2 mg/dL
  TG: 141.4 mg/dL
  TP: 6.1 g/dL
  gamma-GTP: 1.8 IU/L
[8]
  TERMINAL_BW: 386.4 g
  APTT: 16.6 s
  Bas: 0%
  Eos: 1.2%
  Fbg: 225 mg/dL
  Hb: 15.1 g/dL
  Ht: 45.4%
  Lym: 82%
  MCH: 19 pg
  MCHC: 33.3%
  MCV: 57.1 fL
  Mono: 5.4%
  Neu: 11.8%
  PT: 11.6 s
  Plat: 109.6 x10_4/uL
  RBC: 797.4 x10_4/ul
  Ret: 2.6%
  WBC: 167.6 x10_2/uL
  KIDNEY_L: 1.3 g
  KIDNEY_R: 1.4 g
  KIDNEY_TOTAL: 2.7 g
  LIVER: 16.7 g
  A/G: 1.8
  ALP: 696.4 IU/L
  ALT: 52.8 IU/L
  AST: 103.6 IU/L
  BUN: 20.4 mg/dL
  CRE: 0.4 mg/dL
  Ca: 10.9 mg/dL
  Cl: 105.6 meq/L
  DBIL: 0.006 mg/dL
  GLC: 195.2 mg/dL
  IP: 6.5 mg/dL
  K: 4.5 meq/L
  LDH: 172.8 IU/L
  Na: 139.6 meq/L
  PL: 165.2 mg/dL
  RALB: 4.2 g/dL
  TBIL: 0.3 mg/dL
  TC: 78.6 mg/dL
  TG: 139.8 mg/dL
  TP: 6.5 g/dL
  gamma-GTP: 1.6 IU/L
